Source: the kinase profiling compilation of Christmann-Franck et al. (2016)

Legend:
Assay in all cases: KINOMEscan competition binding
Settings in all cases: compound 10.0 µM
MYLK3 (human) = MYLK3 (human) (UniProt Q32MK0)
CASK (human) = CASK (human) (UniProt O14936)
KIT (human) = KIT (human) (UniProt P10721)
CDKL5 (human) = CDKL5 (human) (UniProt O76039)
DYRK1A (human) = DYRK1A (human) (UniProt Q13627)
CPK1 (P.falciparum) = system: CPK1 (P.falciparum)
MAP2K5 (human) = MAP2K5 (human) (UniProt Q13163)
ICK (human) = ICK (human) (UniProt Q9UPZ9)
MET (human) = MET (human) (UniProt P08581)
HIPK2 (human) = HIPK2 (human) (UniProt Q9H2X6)
BRAF (human) = BRAF (human) (UniProt P15056)
NEK3 (human) = NEK3 (human) (UniProt P51956)
CDKL1 (human) = CDKL1 (human) (UniProt Q00532)
SBK1 (human) = SBK1 (human) (UniProt Q52WX2)
IRAK4 (human) = IRAK4 (human) (UniProt Q9NWZ3)
PI4KB (human) = PI4KB (human) (UniProt Q9UBF8)
TAOK2 (human) = TAOK2 (human) (UniProt Q9UL54)
EPHB6 (human) = EPHB6 (human) (UniProt O15197)
PIK3CG (human) = PIK3CG (human) (UniProt P48736)
IRAK1 (human) = IRAK1 (human) (UniProt P51617)
[1] = system: PIK3CA (human), P42336 [H1047Y]
MTOR (human) = MTOR (human) (UniProt P42345)
ERBB3 (human) = ERBB3 (human) (UniProt P21860)
MAST1 (human) = MAST1 (human) (UniProt Q9Y2H9)
HIPK4 (human) = HIPK4 (human) (UniProt Q8NE63)
PRKCI (human) = PRKCI (human) (UniProt P41743)
GRK4 (human) = GRK4 (human) (UniProt P32298)
CDK2 (human) = CDK2 (human) (UniProt P24941)
[2] = system: PIK3CA (human), P42336 [E545A]
RPS6KB1 (human) = RPS6KB1 (human) (UniProt P23443)
MAP3K13 (human) = MAP3K13 (human) (UniProt O43283)
ROCK1 (human) = ROCK1 (human) (UniProt Q13464)
[3] = system: ABL1 (human), P00519 [E255K]
[4] = system: PIK3CA (human), P42336 [E545K]
CDK4 CCND1 (human) = CDK4 CCND1 (human) (UniProt P11802+P24385)
HUNK (human) = HUNK (human) (UniProt P57058)
VRK2 (human) = VRK2 (human) (UniProt Q86Y07)
NIM1 (human) = NIM1 (human) (UniProt Q8IY84)
[5] = system: PIK3CA (human), P42336 [C420R]
SGK3 (human) = SGK3 (human) (UniProt Q96BR1)

Sequence of CDKL1 (human) (Q00532 whole entry, looked up): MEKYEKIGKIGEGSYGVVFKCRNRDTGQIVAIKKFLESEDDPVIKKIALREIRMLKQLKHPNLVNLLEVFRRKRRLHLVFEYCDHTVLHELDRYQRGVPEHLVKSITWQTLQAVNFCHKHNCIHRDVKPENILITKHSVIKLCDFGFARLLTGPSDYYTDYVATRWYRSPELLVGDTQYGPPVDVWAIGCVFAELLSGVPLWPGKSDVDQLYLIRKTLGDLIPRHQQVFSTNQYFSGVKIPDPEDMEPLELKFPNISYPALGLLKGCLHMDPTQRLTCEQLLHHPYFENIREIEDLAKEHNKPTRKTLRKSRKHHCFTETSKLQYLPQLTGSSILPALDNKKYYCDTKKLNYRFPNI
Sequence of PIK3CA (human), P42336 [E545A] (P42336 whole entry E545A, looked up): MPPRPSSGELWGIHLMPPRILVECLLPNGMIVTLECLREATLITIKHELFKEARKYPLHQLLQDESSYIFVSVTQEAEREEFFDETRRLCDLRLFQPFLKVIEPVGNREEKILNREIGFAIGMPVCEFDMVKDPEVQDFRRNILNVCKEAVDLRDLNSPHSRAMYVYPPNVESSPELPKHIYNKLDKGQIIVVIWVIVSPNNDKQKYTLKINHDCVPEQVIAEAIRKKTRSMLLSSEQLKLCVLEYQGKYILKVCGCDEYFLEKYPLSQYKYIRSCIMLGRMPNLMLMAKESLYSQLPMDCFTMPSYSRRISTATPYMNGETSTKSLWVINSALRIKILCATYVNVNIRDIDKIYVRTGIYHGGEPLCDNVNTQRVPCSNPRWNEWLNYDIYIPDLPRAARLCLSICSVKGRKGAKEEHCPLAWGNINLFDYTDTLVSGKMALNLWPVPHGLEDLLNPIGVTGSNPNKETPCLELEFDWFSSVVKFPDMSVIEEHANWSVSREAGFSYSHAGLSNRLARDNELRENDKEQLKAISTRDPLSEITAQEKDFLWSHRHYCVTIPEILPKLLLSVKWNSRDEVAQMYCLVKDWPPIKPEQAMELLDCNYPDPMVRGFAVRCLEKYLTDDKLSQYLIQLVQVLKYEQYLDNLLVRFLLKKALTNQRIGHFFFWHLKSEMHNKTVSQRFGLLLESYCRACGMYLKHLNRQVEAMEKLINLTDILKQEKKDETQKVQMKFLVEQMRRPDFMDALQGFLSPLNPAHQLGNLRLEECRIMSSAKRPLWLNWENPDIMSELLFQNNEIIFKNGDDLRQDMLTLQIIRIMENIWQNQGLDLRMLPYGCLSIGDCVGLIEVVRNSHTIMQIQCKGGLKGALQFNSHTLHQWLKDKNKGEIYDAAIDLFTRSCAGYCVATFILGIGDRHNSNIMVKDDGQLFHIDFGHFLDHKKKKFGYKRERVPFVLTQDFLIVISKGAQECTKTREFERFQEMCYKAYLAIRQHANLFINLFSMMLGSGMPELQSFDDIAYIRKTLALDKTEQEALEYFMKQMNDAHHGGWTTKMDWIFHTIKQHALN
Sequence of PI4KB (human) (Q9UBF8 whole entry, looked up): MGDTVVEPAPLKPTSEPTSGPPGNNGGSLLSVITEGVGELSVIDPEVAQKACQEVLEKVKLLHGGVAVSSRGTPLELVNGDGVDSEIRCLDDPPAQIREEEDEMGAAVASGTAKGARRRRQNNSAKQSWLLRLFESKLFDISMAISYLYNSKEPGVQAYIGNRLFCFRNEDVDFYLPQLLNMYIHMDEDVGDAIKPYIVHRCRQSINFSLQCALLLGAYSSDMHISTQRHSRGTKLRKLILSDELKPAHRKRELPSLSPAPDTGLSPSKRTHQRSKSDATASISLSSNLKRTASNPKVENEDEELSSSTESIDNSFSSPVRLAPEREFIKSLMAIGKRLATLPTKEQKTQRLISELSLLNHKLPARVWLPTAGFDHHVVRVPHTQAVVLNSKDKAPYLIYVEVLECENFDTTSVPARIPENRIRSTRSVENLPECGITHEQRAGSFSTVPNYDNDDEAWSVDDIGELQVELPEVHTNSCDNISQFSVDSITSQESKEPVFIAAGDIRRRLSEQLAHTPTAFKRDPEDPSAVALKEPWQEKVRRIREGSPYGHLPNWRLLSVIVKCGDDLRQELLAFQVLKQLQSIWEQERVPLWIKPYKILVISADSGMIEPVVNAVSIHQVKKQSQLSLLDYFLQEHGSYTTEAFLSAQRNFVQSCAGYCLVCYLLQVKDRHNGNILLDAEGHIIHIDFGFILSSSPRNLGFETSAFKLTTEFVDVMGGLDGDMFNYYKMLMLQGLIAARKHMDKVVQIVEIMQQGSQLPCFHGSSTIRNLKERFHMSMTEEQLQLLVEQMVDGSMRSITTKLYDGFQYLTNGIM
Sequence of VRK2 (human) (Q86Y07 whole entry, looked up): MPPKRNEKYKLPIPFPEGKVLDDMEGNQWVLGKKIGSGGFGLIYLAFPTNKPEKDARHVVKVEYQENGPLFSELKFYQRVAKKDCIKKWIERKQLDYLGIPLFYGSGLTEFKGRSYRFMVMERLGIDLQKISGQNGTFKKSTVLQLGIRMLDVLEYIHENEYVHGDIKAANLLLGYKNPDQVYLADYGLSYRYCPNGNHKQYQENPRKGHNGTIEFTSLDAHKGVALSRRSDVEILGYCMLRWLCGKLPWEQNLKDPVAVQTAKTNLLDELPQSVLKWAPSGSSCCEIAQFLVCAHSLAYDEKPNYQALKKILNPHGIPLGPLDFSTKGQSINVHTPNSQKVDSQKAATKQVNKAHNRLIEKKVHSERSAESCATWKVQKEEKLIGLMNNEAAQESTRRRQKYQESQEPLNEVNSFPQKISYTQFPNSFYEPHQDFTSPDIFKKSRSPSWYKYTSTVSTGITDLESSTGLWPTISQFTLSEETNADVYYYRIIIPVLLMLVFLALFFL
Sequence of PIK3CA (human), P42336 [H1047Y] (P42336 whole entry H1047Y, looked up): as the sequence (P42336 whole entry E545A, looked up) above, with A545E, H1047Y counted along it
Sequence of IRAK4 (human) (Q9NWZ3 whole entry, looked up): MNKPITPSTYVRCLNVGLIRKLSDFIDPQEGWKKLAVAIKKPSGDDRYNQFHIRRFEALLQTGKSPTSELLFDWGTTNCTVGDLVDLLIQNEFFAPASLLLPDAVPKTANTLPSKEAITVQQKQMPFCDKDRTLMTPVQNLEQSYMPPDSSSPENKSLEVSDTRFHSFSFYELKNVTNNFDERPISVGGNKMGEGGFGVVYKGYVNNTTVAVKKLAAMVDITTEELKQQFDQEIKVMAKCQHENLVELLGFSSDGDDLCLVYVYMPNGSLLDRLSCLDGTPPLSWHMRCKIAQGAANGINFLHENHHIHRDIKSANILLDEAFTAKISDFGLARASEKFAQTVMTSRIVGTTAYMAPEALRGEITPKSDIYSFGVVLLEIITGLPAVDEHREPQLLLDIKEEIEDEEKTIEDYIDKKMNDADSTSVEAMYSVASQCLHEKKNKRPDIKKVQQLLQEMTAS
Sequence of MAP3K13 (human) (O43283 whole entry, looked up): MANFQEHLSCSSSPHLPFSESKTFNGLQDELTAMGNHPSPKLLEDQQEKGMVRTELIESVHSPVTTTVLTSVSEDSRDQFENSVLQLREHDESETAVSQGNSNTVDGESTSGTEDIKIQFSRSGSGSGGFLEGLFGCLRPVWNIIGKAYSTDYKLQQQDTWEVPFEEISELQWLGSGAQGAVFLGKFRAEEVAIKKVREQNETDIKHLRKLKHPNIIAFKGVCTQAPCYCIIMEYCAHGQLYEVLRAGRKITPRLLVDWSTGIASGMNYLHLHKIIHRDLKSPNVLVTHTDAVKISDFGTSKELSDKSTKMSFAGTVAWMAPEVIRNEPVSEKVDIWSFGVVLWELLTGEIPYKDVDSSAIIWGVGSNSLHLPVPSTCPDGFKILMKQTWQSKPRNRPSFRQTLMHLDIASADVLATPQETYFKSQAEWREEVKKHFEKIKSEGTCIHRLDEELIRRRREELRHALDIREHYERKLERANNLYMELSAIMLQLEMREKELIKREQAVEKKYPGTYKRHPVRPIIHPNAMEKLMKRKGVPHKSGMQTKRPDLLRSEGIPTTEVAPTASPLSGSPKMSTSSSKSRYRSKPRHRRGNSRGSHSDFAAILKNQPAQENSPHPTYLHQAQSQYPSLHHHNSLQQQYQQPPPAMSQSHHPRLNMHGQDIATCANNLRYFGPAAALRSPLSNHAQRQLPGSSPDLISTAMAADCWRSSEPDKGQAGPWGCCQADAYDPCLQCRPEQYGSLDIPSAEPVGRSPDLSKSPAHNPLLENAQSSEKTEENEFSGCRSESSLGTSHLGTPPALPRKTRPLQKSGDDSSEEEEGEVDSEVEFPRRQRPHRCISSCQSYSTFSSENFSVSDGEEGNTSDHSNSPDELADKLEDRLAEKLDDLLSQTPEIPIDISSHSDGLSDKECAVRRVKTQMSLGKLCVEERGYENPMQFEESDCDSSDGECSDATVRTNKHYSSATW
Sequence of PRKCI (human) (P41743 whole entry, looked up): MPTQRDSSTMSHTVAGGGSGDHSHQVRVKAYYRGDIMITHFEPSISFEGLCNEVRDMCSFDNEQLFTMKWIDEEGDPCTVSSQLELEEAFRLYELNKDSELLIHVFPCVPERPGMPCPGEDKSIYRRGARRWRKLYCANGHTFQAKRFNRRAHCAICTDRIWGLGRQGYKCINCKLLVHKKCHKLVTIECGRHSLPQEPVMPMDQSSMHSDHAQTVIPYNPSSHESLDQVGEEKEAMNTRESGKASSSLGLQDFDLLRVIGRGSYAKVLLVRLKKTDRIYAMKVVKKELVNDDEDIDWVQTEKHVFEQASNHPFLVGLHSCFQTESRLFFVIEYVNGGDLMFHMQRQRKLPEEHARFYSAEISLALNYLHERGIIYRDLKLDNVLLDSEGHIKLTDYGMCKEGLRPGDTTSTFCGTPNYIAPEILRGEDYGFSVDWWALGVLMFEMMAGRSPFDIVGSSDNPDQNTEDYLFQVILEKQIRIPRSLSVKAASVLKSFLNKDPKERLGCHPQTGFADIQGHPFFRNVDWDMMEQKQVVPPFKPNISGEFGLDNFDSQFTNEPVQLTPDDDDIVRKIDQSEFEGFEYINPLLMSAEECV
Sequence of PIK3CA (human), P42336 [E545K] (P42336 whole entry E545K, looked up): as the sequence (P42336 whole entry E545A, looked up) above, with A545K counted along it
Sequence of PIK3CA (human), P42336 [C420R] (P42336 whole entry C420R, looked up): as the sequence (P42336 whole entry E545A, looked up) above, with C420R, A545E counted along it

Row | Structure (SMILES) | kinase still bound, per cent of control (MYLK3 (human)) | kinase still bound, per cent of control (CASK (human)) | kinase still bound, per cent of control (CDKL5 (human)) | kinase still bound, per cent of control (DYRK1A (human)) | kinase still bound, per cent of control (CPK1 (P.falciparum)) | kinase still bound, per cent of control (MAP2K5 (human)) | kinase still bound, per cent of control (ICK (human)) | kinase still bound, per cent of control (MET (human)) | kinase still bound, per cent of control (HIPK2 (human)) | kinase still bound, per cent of control (BRAF (human)) | kinase still bound, per cent of control (NEK3 (human)) | kinase still bound, per cent of control (CDKL1 (human)) | kinase still bound, per cent of control (SBK1 (human)) | kinase still bound, per cent of control (IRAK4 (human)) | kinase still bound, per cent of control (PI4KB (human)) | kinase still bound, per cent of control (TAOK2 (human)) | kinase still bound, per cent of control (EPHB6 (human)) | kinase still bound, per cent of control (PIK3CG (human)) | kinase still bound, per cent of control (IRAK1 (human)) | kinase still bound, per cent of control (MTOR (human)) | other results
1 | Cc1ccc(NC(=O)c2cccc(C(C)(C)C#N)c2)cc1Nc1ccc2ncn(C)c(=O)c2c1 | 100% | 96% | 93% | 79% | 0.75% | 0.7% | 100% | 89% | 73% | 0% | 57% | 100% | 79% | 83% | 82% | 72% | 2.4% | 99% | 75% | 100% | kinase still bound, per cent of control (KIT (human)): 0%; kinase still bound, per cent of control [1]: 100%; kinase still bound, per cent of control (ERBB3 (human)): 100%; kinase still bound, per cent of control (MAST1 (human)): 100%; kinase still bound, per cent of control (HIPK4 (human)): 92%; kinase still bound, per cent of control (PRKCI (human)): 100%; kinase still bound, per cent of control (GRK4 (human)): 100%; kinase still bound, per cent of control (CDK2 (human)): 100%; kinase still bound, per cent of control [2]: 89%; kinase still bound, per cent of control (RPS6KB1 (human)): 100%; kinase still bound, per cent of control (MAP3K13 (human)): 100%; kinase still bound, per cent of control (ROCK1 (human)): 92%; kinase still bound, per cent of control [3]: 3.4%; kinase still bound, per cent of control [4]: 100%; kinase still bound, per cent of control (CDK4 CCND1 (human)): 61%; kinase still bound, per cent of control (HUNK (human)): 100%; kinase still bound, per cent of control (VRK2 (human)): 100%; kinase still bound, per cent of control (NIM1 (human)): 100%; kinase still bound, per cent of control [5]: 100%; kinase still bound, per cent of control (SGK3 (human)): 100%
2 | CCOc1cc2ncc(C#N)c(Nc3ccc(OCc4ccccn4)c(Cl)c3)c2cc1NC(=O)/C=C/CN(C)C | 86% | 100% | 100% | 99% | 88% | 1.8% | 100% | 84% | 65% | 95% | 41% | 100% | 100% | 96% | 100% | 92% | 83% | 91% | 65% | 100% | kinase still bound, per cent of control (KIT (human)): 80%; kinase still bound, per cent of control (ERBB3 (human)): 0.1%; kinase still bound, per cent of control (MAST1 (human)): 100%; kinase still bound, per cent of control (HIPK4 (human)): 42%; kinase still bound, per cent of control (PRKCI (human)): 90%; kinase still bound, per cent of control (GRK4 (human)): 68%; kinase still bound, per cent of control [2]: 100%; kinase still bound, per cent of control (RPS6KB1 (human)): 100%; kinase still bound, per cent of control (MAP3K13 (human)): 86%; kinase still bound, per cent of control (ROCK1 (human)): 100%; kinase still bound, per cent of control [3]: 100%; kinase still bound, per cent of control (CDK4 CCND1 (human)): 71%; kinase still bound, per cent of control (HUNK (human)): 86%; kinase still bound, per cent of control (VRK2 (human)): 67%; kinase still bound, per cent of control (NIM1 (human)): 90%; kinase still bound, per cent of control (SGK3 (human)): 100%
3 | N#Cc1c(NC(=O)c2cccc3ccccc23)sc2c1CCCC2 | 100% | 71% | 70% | 100% | 81% | 100% | 81% | 66% | 100% | 100% | 100% | 73% | 100% | 100% | 100% | 100% | 85% | 99% | 100% | 100% | kinase still bound, per cent of control [1]: 100%; kinase still bound, per cent of control (ERBB3 (human)): 100%; kinase still bound, per cent of control (MAST1 (human)): 100%; kinase still bound, per cent of control (HIPK4 (human)): 100%; kinase still bound, per cent of control (PRKCI (human)): 63%; kinase still bound, per cent of control (GRK4 (human)): 100%; kinase still bound, per cent of control (CDK2 (human)): 95%; kinase still bound, per cent of control [2]: 80%; kinase still bound, per cent of control (RPS6KB1 (human)): 90%; kinase still bound, per cent of control (MAP3K13 (human)): 83%; kinase still bound, per cent of control (ROCK1 (human)): 100%; kinase still bound, per cent of control [3]: 100%; kinase still bound, per cent of control [4]: 88%; kinase still bound, per cent of control (CDK4 CCND1 (human)): 100%; kinase still bound, per cent of control (HUNK (human)): 95%; kinase still bound, per cent of control (VRK2 (human)): 100%; kinase still bound, per cent of control (NIM1 (human)): 100%; kinase still bound, per cent of control [5]: 92%; kinase still bound, per cent of control (SGK3 (human)): 92%
4 | O=C(O)c1ccc(Nc2ncc3c(n2)-c2ccc(Cl)cc2C(c2c(F)cccc2F)=NC3)cc1 | 100% | 91% | 100% | 52% | 63% | 80% | 86% | 49% | 100% | 100% | 100% | 100% | 100% | 100% | 100% | 94% | 41% | 100% | 93% | 75% | kinase still bound, per cent of control [1]: 27%; kinase still bound, per cent of control (ERBB3 (human)): 74%; kinase still bound, per cent of control (MAST1 (human)): 100%; kinase still bound, per cent of control (HIPK4 (human)): 31%; kinase still bound, per cent of control (PRKCI (human)): 100%; kinase still bound, per cent of control (GRK4 (human)): 100%; kinase still bound, per cent of control (CDK2 (human)): 84%; kinase still bound, per cent of control [2]: 20%; kinase still bound, per cent of control (RPS6KB1 (human)): 54%; kinase still bound, per cent of control (MAP3K13 (human)): 100%; kinase still bound, per cent of control (ROCK1 (human)): 63%; kinase still bound, per cent of control [4]: 100%; kinase still bound, per cent of control (CDK4 CCND1 (human)): 98%; kinase still bound, per cent of control (HUNK (human)): 59%; kinase still bound, per cent of control (VRK2 (human)): 100%; kinase still bound, per cent of control (NIM1 (human)): 100%; kinase still bound, per cent of control [5]: 67%; kinase still bound, per cent of control (SGK3 (human)): 100%
